The values below come from article PMC2154353 (The Journal of General Physiology, 2007).

The target in assay [1] is T1, MEC-4 homomeric channel (A713wt), coexpressed with MEC-2 (Caenorhabditis elegans, UniProt P24612, A713T).
T1 sequence (P24612 1-768 A713T): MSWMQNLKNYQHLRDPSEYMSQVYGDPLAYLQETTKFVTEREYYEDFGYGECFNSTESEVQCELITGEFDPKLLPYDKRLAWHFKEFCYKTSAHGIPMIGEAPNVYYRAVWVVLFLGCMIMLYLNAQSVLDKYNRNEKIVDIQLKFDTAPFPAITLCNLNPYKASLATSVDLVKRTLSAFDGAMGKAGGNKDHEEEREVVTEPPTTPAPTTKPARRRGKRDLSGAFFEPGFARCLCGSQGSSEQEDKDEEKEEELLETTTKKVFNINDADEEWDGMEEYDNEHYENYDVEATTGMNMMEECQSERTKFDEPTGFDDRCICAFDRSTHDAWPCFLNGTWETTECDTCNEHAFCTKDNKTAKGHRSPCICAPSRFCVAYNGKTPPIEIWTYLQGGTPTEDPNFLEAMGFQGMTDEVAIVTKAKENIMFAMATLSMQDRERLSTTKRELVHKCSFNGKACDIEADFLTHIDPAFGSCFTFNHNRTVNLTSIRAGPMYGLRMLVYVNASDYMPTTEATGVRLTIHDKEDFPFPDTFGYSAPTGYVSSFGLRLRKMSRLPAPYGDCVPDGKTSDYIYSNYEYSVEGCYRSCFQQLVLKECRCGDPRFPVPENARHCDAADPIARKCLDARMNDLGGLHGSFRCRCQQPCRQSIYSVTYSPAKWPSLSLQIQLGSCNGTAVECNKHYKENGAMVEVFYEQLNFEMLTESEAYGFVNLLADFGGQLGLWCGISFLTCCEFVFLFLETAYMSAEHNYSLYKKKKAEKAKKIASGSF
T1 sequence (Q27433 1-481 partner): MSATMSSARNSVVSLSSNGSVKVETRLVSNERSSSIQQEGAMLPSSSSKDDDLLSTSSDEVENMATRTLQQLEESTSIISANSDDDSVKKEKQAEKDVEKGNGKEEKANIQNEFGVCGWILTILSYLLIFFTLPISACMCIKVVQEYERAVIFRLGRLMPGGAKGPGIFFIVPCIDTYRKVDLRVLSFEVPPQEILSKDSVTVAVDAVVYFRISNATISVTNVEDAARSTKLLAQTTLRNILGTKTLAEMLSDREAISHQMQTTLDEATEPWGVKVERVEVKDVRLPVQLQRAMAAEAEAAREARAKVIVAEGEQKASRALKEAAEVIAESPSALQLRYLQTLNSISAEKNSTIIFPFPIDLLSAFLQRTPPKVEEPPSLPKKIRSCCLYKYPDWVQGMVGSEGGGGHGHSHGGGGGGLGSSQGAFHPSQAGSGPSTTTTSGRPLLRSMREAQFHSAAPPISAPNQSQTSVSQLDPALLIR
Kind of assay: two-electrode voltage clamp, oocytes, dose-response of current block. It is filed as cell-based.

Assay [2] has as its target T2, MEC-4 homomeric channel (A713wt), coexpressed with MEC-2 (Caenorhabditis elegans, UniProt P24612).
T2 sequence (P24612 1-768): T1 sequence (P24612 1-768 A713T)
T2 sequence (Q27433 1-481 partner): T1 sequence (Q27433 1-481 partner)
The description is as above. It is filed as cell-based.

SMILES strings stand for the structures.

Take `N=C(N)c1ccccc1` [benzamidine]: the figures for the Ki in assay [1] and in assay [2] were 196 ± 40 µM and 108 ± 3 µM, respectively.

On to `NC(=NCc1ccccc1)NC(=O)c1nc(Cl)c(N)nc1N` [benzamil], for which the Ki (commonly the dissociation constant of the complex between target and ligand, obtained from inhibition or displacement) in assay [1] was determined as 0.83 ± 0.14 µM; in assay [2], 0.15 ± 0.01 µM.
